# Experimental data published in PubChem BioAssay (NCI).
#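 Method: 48-hour compound exposure of cells in 96-well plates, five concentrations, linear interpolation of endpoints. At the TGI there is no net growth.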
# Legend:
# Experiment in all cases: NCI tumour cell line growth inhibition, 48 h
# 786-0 renal = system: 786-0 renal
# A498 renal = system: A498 renal
# A549 NSCLC = system: A549 NSCLC
# ACHN renal = system: ACHN renal
# BT-549 breast = system: BT-549 breast
# CAKI-1 renal = system: CAKI-1 renal
# CCRF-CEM leukemia = system: CCRF-CEM leukemia
# COLO 205 colon = system: COLO 205 colon
# DU-145 prostate = system: DU-145 prostate
# EKVX NSCLC = system: EKVX NSCLC
# HCT-116 colon = system: HCT-116 colon
# HCT-15 colon = system: HCT-15 colon
# HL-60(TB) leukemia = system: HL-60(TB) leukemia
# HOP-62 NSCLC = system: HOP-62 NSCLC
# HOP-92 NSCLC = system: HOP-92 NSCLC
# HS 578T breast = system: HS 578T breast
# HT29 colon = system: HT29 colon
# IGROV1 ovarian = system: IGROV1 ovarian
# K-562 leukemia = system: K-562 leukemia
# KM12 colon = system: KM12 colon
# LOX IMVI melanoma = system: LOX IMVI melanoma
# M14 melanoma = system: M14 melanoma
# MALME-3M melanoma = system: MALME-3M melanoma
# MCF7 breast = system: MCF7 breast
# MDA-MB-231 breast = system: MDA-MB-231 breast
# MDA-MB-435 = system: MDA-MB-435
# MDA-N = system: MDA-N
# MOLT-4 leukemia = system: MOLT-4 leukemia
# NCI-H226 lung = system: NCI-H226 lung
# NCI-H23 lung = system: NCI-H23 lung
# NCI-H460 lung = system: NCI-H460 lung
# NCI-H522 lung = system: NCI-H522 lung
# NCI/ADR-RES ovarian = system: NCI/ADR-RES ovarian
# OVCAR-3 ovarian = system: OVCAR-3 ovarian
# OVCAR-4 ovarian = system: OVCAR-4 ovarian
# OVCAR-5 ovarian = system: OVCAR-5 ovarian
# OVCAR-8 ovarian = system: OVCAR-8 ovarian
# PC-3 prostate = system: PC-3 prostate
# RPMI-8226 leukemia = system: RPMI-8226 leukemia
# RXF 393 renal = system: RXF 393 renal
# SF-268 CNS = system: SF-268 CNS
# SF-295 CNS = system: SF-295 CNS
# SF-539 CNS = system: SF-539 CNS
# SK-MEL-2 melanoma = system: SK-MEL-2 melanoma
# SK-MEL-28 melanoma = system: SK-MEL-28 melanoma
# SK-MEL-5 melanoma = system: SK-MEL-5 melanoma
# SK-OV-3 ovarian = system: SK-OV-3 ovarian
# SN12C renal = system: SN12C renal
# SNB-19 CNS = system: SNB-19 CNS
# SNB-75 CNS = system: SNB-75 CNS
# SR leukemia = system: SR leukemia
# SW-620 colon = system: SW-620 colon
# T-47D breast = system: T-47D breast
# TK-10 renal = system: TK-10 renal
# U251 CNS = system: U251 CNS
# UACC-257 melanoma = system: UACC-257 melanoma
# UO-31 renal = system: UO-31 renal
smiles,measurement,setting,value
COC(=O)CCC(C)[C@H]1CCC2C3C(C[C@H](OC(C)=O)[C@@]21C)[C@@]1(C)CCC2(C[C@H]1C[C@H]3OC(C)=O)OOC1(CCCCCCC1)OO2 (some centres not stated),TGI,786-0 renal,> 100 µM
same,TGI,A498 renal,> 100 µM
same,TGI,A549 NSCLC,> 100 µM
same,TGI,ACHN renal,> 100 µM
same,TGI,BT-549 breast,> 100 µM
same,TGI,CAKI-1 renal,> 100 µM
same,TGI,CCRF-CEM leukemia,> 100 µM
same,TGI,COLO 205 colon,> 100 µM
same,TGI,DU-145 prostate,> 100 µM
same,TGI,EKVX NSCLC,> 100 µM
same,TGI,HCT-116 colon,> 100 µM
same,TGI,HCT-15 colon,> 100 µM
same,TGI,HL-60(TB) leukemia,> 100 µM
same,TGI,HOP-62 NSCLC,52.7 µM
same,TGI,HOP-92 NSCLC,> 100 µM
same,TGI,HS 578T breast,> 100 µM
same,TGI,HT29 colon,> 100 µM
same,TGI,IGROV1 ovarian,> 100 µM
same,TGI,K-562 leukemia,> 100 µM
same,TGI,KM12 colon,> 100 µM
same,TGI,LOX IMVI melanoma,> 100 µM
same,TGI,M14 melanoma,> 100 µM
same,TGI,MALME-3M melanoma,> 100 µM
same,TGI,MCF7 breast,> 100 µM
same,TGI,MDA-MB-231 breast,> 100 µM
same,TGI,MDA-MB-435,> 100 µM
same,TGI,MDA-N,> 100 µM
same,TGI,MOLT-4 leukemia,> 100 µM
same,TGI,NCI-H226 lung,50 µM
same,TGI,NCI-H23 lung,> 100 µM
same,TGI,NCI-H460 lung,> 100 µM
same,TGI,NCI-H522 lung,> 100 µM
same,TGI,NCI/ADR-RES ovarian,> 100 µM
same,TGI,OVCAR-3 ovarian,> 100 µM
same,TGI,OVCAR-4 ovarian,> 100 µM
same,TGI,OVCAR-5 ovarian,> 100 µM
same,TGI,OVCAR-8 ovarian,> 100 µM
same,TGI,PC-3 prostate,> 100 µM
same,TGI,RPMI-8226 leukemia,6.21 µM
same,TGI,RXF 393 renal,> 100 µM
same,TGI,SF-268 CNS,> 100 µM
same,TGI,SF-295 CNS,> 100 µM
same,TGI,SF-539 CNS,> 100 µM
same,TGI,SK-MEL-2 melanoma,> 100 µM
same,TGI,SK-MEL-28 melanoma,> 100 µM
same,TGI,SK-MEL-5 melanoma,> 100 µM
same,TGI,SK-OV-3 ovarian,> 100 µM
same,TGI,SN12C renal,> 100 µM
same,TGI,SNB-19 CNS,> 100 µM
same,TGI,SNB-75 CNS,> 100 µM
same,TGI,SR leukemia,> 100 µM
same,TGI,SW-620 colon,> 100 µM
same,TGI,T-47D breast,> 100 µM
same,TGI,TK-10 renal,> 100 µM
same,TGI,U251 CNS,> 100 µM
same,TGI,UACC-257 melanoma,> 100 µM
same,TGI,UO-31 renal,28.8 µM
